{
  "source": "the supplement of paper PMC9663587",
  "key": {"[1]": {"compound": "COc1cc2c(Oc3ccc4[nH]c(C)cc4c3F)ncnc2cc1OCCCN1CCCC1 [Cediranib/AZD2171]"}, "[2]": {"compound": "COc1ccc2c(c1)[C@]1(C[C@H]1c1ccc3c(/C=C/c4ccc(CN5C[C@@H](C)O[C@@H](C)C5)cc4)n[nH]c3c1)C(=O)N2"}, "[3]": {"compound": "CC(C)Nc1cc(-c2c[nH]c(C(=O)N[C@H](CO)c3cccc(Cl)c3)c2)c(Cl)cn1 [BVD523]"}, "[4]": {"compound": "CCCCOc1c(C(=O)c2c(F)cc(C)cc2F)c[nH]c2nncc1-2"}, "[5]": {"compound": "CNCc1ccc(-c2[nH]c3cc(F)cc4c3c2CCNC4=O)cc1 [Rucaparib]"}, "[6]": {"compound": "T1, CN(C)C/C=C/C(=O)Nc1ccc(C(=O)Nc2cccc(Nc3ncc(Cl)c(-c4c[nH]c5ccccc45)n3)c2)cc1 [THZ1]"}, "[7]": {"compound": "T2, CN(C)C/C=C/C(=O)Nc1ccc(C(=O)N2CCC[C@@H](Nc3ncc(Cl)c(-c4c[nH]c5ccccc45)n3)C2)cc1 [THZ531]"}, "[8]": {"compound": "Cc1nc(NC(=O)N2CCC[C@H]2C(N)=O)sc1-c1ccnc(C(C)(C)C(F)(F)F)c1 [Alpelisib/BYL719]"}, "[9]": {"compound": "CN1CCN(CCOc2cc(OC3CCOCC3)c3c(Nc4c(Cl)ccc5c4OCO5)ncnc3c2)CC1 [Saracatinib/AZD0530]"}, "[10]": {"compound": "CC(=O)Nc1cccc(-n2c(=O)n(C3CC3)c(=O)c3c(Nc4ccc(I)cc4F)n(C)c(=O)c(C)c32)c1"}, "[11]": {"compound": "C=CCn1c(=O)c2cnc(Nc3ccc(N4CCN(C)CC4)cc3)nc2n1-c1cccc(C(C)(C)O)n1 [AZD1775]"}, "[12]": {"compound": "CC(=O)c1c(C)c2cnc(Nc3ccc(N4CCNCC4)cn3)nc2n(C2CCCC2)c1=O", "assay": "increase in dead-cell fraction, 72 h; higher = more death;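 further: breast cancer cell lines in 384-well plates, stained with Hoechst plus LIVE/DEAD far red dye and imaged, cells above an LDR intensity threshold counted dead, Hoechst-negative corpses included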"}, "[13]": {"compound": "CCOc1cc2ncc(C#N)c(Nc3ccc(OCc4ccccn4)c(Cl)c3)c2cc1NC(=O)/C=C/CN(C)C [Neratinib/HKI272]", "assay": "increase in dead-cell fraction, 72 h; higher = more death"}, "[14]": {"compound": "T1, THZ1", "assay": "increase in dead-cell fraction, 72 h; higher = more death"}, "[15]": {"compound": "T2, THZ531", "assay": "increase in dead-cell fraction, 72 h; higher = more death"}, "[16]": {"compound": "CN(C)C(=O)c1cc2cnc(Nc3ccc(N4CCNCC4)cn3)nc2n1C1CCCC1 [LEE011/Ribociclib]", "assay": "increase in dead-cell fraction, 72 h; higher = more death"}, "[17]": {"compound": "CCc1cnn2c(NCc3ccc[n+]([O-])c3)cc(N3CCCC[C@H]3CCO)nc12", "assay": "increase in dead-cell fraction, 72 h; higher = more death"}, "[18]": {"compound": "CC(=O)c1c(C)c2cnc(Nc3ccc(N4CCN(CCOCCOCCOCCNC(=O)COc5cccc6c5C(=O)N(C5CCC(=O)NC5=O)C6=O)CC4)cn3)nc2n(C2CCCC2)c1=O [BSJ-03-123]", "assay": "increase in dead-cell fraction, 72 h; higher = more death"}, "[19]": {"compound": "C=CC(=O)Nc1ccc(C(=O)Nc2[nH]nc3c2CN(C(=O)N[C@H](CN(C)C)c2ccccc2)C3(C)C)cc1 [YKL-5-124]", "assay": "increase in dead-cell fraction, 72 h; higher = more death"}},
  "data": [
    {"cell line": "ZR7530", "values": [
      {"measurement": "GR50, 72 h", "setting": "[1]", "value": 7.57, "unit": "µM"},
      {"measurement": "GR50, 72 h", "setting": "[2]", "value": 0.00327, "unit": "µM"},
      {"measurement": "GR50, 72 h", "setting": "[3]", "value": "> 10", "unit": "µM"},
      {"measurement": "GR50, 72 h", "setting": "[4]", "value": 0.152, "unit": "µM"},
      {"measurement": "GR50, 72 h", "setting": "[5]", "value": "> 10", "unit": "µM"},
      {"measurement": "GR50, 72 h", "setting": "[6]", "value": 0.0259, "unit": "µM"},
      {"measurement": "GR50, 72 h", "setting": "[7]", "value": 0.0583, "unit": "µM"},
      {"measurement": "GR50, 72 h", "setting": "[8]", "value": 0.246, "unit": "µM"},
      {"measurement": "GR50, 72 h", "setting": "[9]", "value": 0.533, "unit": "µM"},
      {"measurement": "GR50, 72 h", "setting": "[10]", "value": 0.0361, "unit": "µM"},
      {"measurement": "GR50, 72 h", "setting": "[11]", "value": 1.91, "unit": "µM"},
      {"measurement": "increase in dead-cell fraction", "setting": "[12]; 0.0003162 µM", "value": 0.0003},
      {"measurement": "increase in dead-cell fraction", "setting": "[12]; 0.001 µM", "value": -0.0021},
      {"measurement": "increase in dead-cell fraction", "setting": "[12]; 0.003162 µM", "value": 0.0019},
      {"measurement": "increase in dead-cell fraction", "setting": "[12]; 0.01 µM", "value": -0.0031},
      {"measurement": "increase in dead-cell fraction", "setting": "[12]; 0.03162 µM", "value": 0.0102},
      {"measurement": "increase in dead-cell fraction", "setting": "[12]; 0.1 µM", "value": 0.0763},
      {"measurement": "increase in dead-cell fraction", "setting": "[12]; 0.3162 µM", "value": 0.0662},
      {"measurement": "increase in dead-cell fraction", "setting": "[12]; 1 µM", "value": 0.0375},
      {"measurement": "increase in dead-cell fraction", "setting": "[12]; 3.162 µM", "value": 0.0348},
      {"measurement": "increase in dead-cell fraction", "setting": "[13]; 0.0003162 µM", "value": 0.0037},
      {"measurement": "increase in dead-cell fraction", "setting": "[13]; 0.001 µM", "value": -0.0057},
      {"measurement": "increase in dead-cell fraction", "setting": "[13]; 0.003162 µM", "value": -0.0122},
      {"measurement": "increase in dead-cell fraction", "setting": "[13]; 0.01 µM", "value": -0.0066},
      {"measurement": "increase in dead-cell fraction", "setting": "[13]; 0.03162 µM", "value": 0.0011},
      {"measurement": "increase in dead-cell fraction", "setting": "[13]; 0.1 µM", "value": 0.0186},
      {"measurement": "increase in dead-cell fraction", "setting": "[13]; 0.3162 µM", "value": 0.0145},
      {"measurement": "increase in dead-cell fraction", "setting": "[13]; 1 µM", "value": 0.025},
      {"measurement": "increase in dead-cell fraction", "setting": "[13]; 3.162 µM", "value": 0.0495},
      {"measurement": "increase in dead-cell fraction", "setting": "[14]; 0.0001 µM", "value": 0.0034},
      {"measurement": "increase in dead-cell fraction", "setting": "[14]; 0.0003162 µM", "value": 0.0045},
      {"measurement": "increase in dead-cell fraction", "setting": "[14]; 0.001 µM", "value": 0},
      {"measurement": "increase in dead-cell fraction", "setting": "[14]; 0.003162 µM", "value": -0.0128},
      {"measurement": "increase in dead-cell fraction", "setting": "[14]; 0.01 µM", "value": 0.0019},
      {"measurement": "increase in dead-cell fraction", "setting": "[14]; 0.03162 µM", "value": 0.0253},
      {"measurement": "increase in dead-cell fraction", "setting": "[14]; 0.1 µM", "value": 0.0921},
      {"measurement": "increase in dead-cell fraction", "setting": "[14]; 0.3162 µM", "value": 0.097},
      {"measurement": "increase in dead-cell fraction", "setting": "[14]; 1 µM", "value": 0.229},
      {"measurement": "increase in dead-cell fraction", "setting": "[15]; 0.0001 µM", "value": 0.0074},
      {"measurement": "increase in dead-cell fraction", "setting": "[15]; 0.0003162 µM", "value": 0.0167},
      {"measurement": "increase in dead-cell fraction", "setting": "[15]; 0.001 µM", "value": 0.0003},
      {"measurement": "increase in dead-cell fraction", "setting": "[15]; 0.003162 µM", "value": 0.0105},
      {"measurement": "increase in dead-cell fraction", "setting": "[15]; 0.01 µM", "value": -0.0154},
      {"measurement": "increase in dead-cell fraction", "setting": "[15]; 0.03162 µM", "value": -0.0168},
      {"measurement": "increase in dead-cell fraction", "setting": "[15]; 0.1 µM", "value": 0.129},
      {"measurement": "increase in dead-cell fraction", "setting": "[15]; 0.3162 µM", "value": 0.234},
      {"measurement": "increase in dead-cell fraction", "setting": "[15]; 1 µM", "value": 0.0722},
      {"measurement": "increase in dead-cell fraction", "setting": "[16]; 0.001 µM", "value": 0.0122},
      {"measurement": "increase in dead-cell fraction", "setting": "[16]; 0.003162 µM", "value": 0.0504},
      {"measurement": "increase in dead-cell fraction", "setting": "[16]; 0.01 µM", "value": 0.0152},
      {"measurement": "increase in dead-cell fraction", "setting": "[16]; 0.03162 µM", "value": 0.0426},
      {"measurement": "increase in dead-cell fraction", "setting": "[16]; 0.1 µM", "value": 0.0177},
      {"measurement": "increase in dead-cell fraction", "setting": "[16]; 0.3162 µM", "value": 0.0519},
      {"measurement": "increase in dead-cell fraction", "setting": "[16]; 1 µM", "value": 0.0531},
      {"measurement": "increase in dead-cell fraction", "setting": "[16]; 3.162 µM", "value": 0.0382},
      {"measurement": "increase in dead-cell fraction", "setting": "[16]; 10 µM", "value": 0.0703},
      {"measurement": "increase in dead-cell fraction", "setting": "[17]; 0.0001 µM", "value": -0.0019},
      {"measurement": "increase in dead-cell fraction", "setting": "[17]; 0.0003162 µM", "value": 0.0016},
      {"measurement": "increase in dead-cell fraction", "setting": "[17]; 0.001 µM", "value": -0.02},
      {"measurement": "increase in dead-cell fraction", "setting": "[17]; 0.003162 µM", "value": 0.0075},
      {"measurement": "increase in dead-cell fraction", "setting": "[17]; 0.01 µM", "value": -0.0026},
      {"measurement": "increase in dead-cell fraction", "setting": "[17]; 0.03162 µM", "value": 0.0388},
      {"measurement": "increase in dead-cell fraction", "setting": "[17]; 0.1 µM", "value": 0.103},
      {"measurement": "increase in dead-cell fraction", "setting": "[17]; 0.3162 µM", "value": 0.138},
      {"measurement": "increase in dead-cell fraction", "setting": "[17]; 1 µM", "value": 0.131},
      {"measurement": "increase in dead-cell fraction", "setting": "[18]; 0.001 µM", "value": 0.0025},
      {"measurement": "increase in dead-cell fraction", "setting": "[18]; 0.003162 µM", "value": 0.0062},
      {"measurement": "increase in dead-cell fraction", "setting": "[18]; 0.01 µM", "value": 0.0113},
      {"measurement": "increase in dead-cell fraction", "setting": "[18]; 0.03162 µM", "value": 0.0285},
      {"measurement": "increase in dead-cell fraction", "setting": "[18]; 0.1 µM", "value": 0.002},
      {"measurement": "increase in dead-cell fraction", "setting": "[18]; 0.3162 µM", "value": 0.0395},
      {"measurement": "increase in dead-cell fraction", "setting": "[18]; 1 µM", "value": 0.0336},
      {"measurement": "increase in dead-cell fraction", "setting": "[18]; 3.162 µM", "value": 0.0895},
      {"measurement": "increase in dead-cell fraction", "setting": "[18]; 10 µM", "value": 0.039},
      {"measurement": "increase in dead-cell fraction", "setting": "[19]; 0.001 µM", "value": 0.039},
      {"measurement": "increase in dead-cell fraction", "setting": "[19]; 0.003162 µM", "value": 0.0535},
      {"measurement": "increase in dead-cell fraction", "setting": "[19]; 0.01 µM", "value": 0.0595},
      {"measurement": "increase in dead-cell fraction", "setting": "[19]; 0.03162 µM", "value": 0.0181},
      {"measurement": "increase in dead-cell fraction", "setting": "[19]; 0.1 µM", "value": 0.0418},
      {"measurement": "increase in dead-cell fraction", "setting": "[19]; 0.3162 µM", "value": 0.04},
      {"measurement": "increase in dead-cell fraction", "setting": "[19]; 1 µM", "value": 0.0587},
      {"measurement": "increase in dead-cell fraction", "setting": "[19]; 3.162 µM", "value": 0.0125},
      {"measurement": "increase in dead-cell fraction", "setting": "[19]; 10 µM", "value": 0.105}
    ]}
  ]
}
